In US8283478B2, “Process for preparation of sulfamide derivatives” (Janssen Pharmaceutica NV, priority 2005, dated 2012):

System: CF-1 male albino mice (MES-induced seizure)
Experiment: Maximal Electroshock Test (MES), anticonvulsant activity
Assay type: in vivo
Details: for MES @ 300 mpk: (number of mice with full body tonic extension prevented)/(total number of mice tested): 300 mpk oral
Procedure: Anticonvulsant activity was determined using the MES test, run according to the procedure described in detail below. Swinyard E A, Woodhead J H, White H S, Franklin M R. Experimental selection, quantification, and evaluation of anticonvulsants. In Levy R H, et al., eds. Antiepileptic Drugs. 3rd ed. New York: Raven Press, 1989:85-102
CF-1 male albino mice (25-35 g) were fasted for 16 hours before testing. Mice were randomly selected into control and test groups, with the animals dosed with vehicle or test compound, at varying concentrations, respectively. On the study date, at 30 minutes prior to shock, the mice were orally dosed with vehicle (0.5% methylcellulose) or test compound (100-300 mg/kg). Seizures were induced by trans-corneal electric shock using a 60-Hz alternating current, 50 mA, delivered for 0.2 sec. The mice in the test groups were subjected to electrical stimulus at time intervals between 15 minutes and 4 hours following administration of test compound. […] The test was complete when the entire course of the convulsion has been observed (typically, less than 1 minute after electrical stimulation), and the mice were then immediately euthanized by carbon dioxide inhalation.
Abolition of the full body tonic extensor component of the seizure was taken as the endpoint of the test. […] The ED50 value of the test compound (calculated when appropriate) was the calculated dose required to block the hind limb tonic-extensor component of the MES-induced seizure in 50% of the rodents tested. A probit analysis was used to calculate the ED50 and 95% fiducial limits (FL).
Representative compounds of the present invention were tested according to the procedure described above, with results as listed in Table 3 below. Results are listed as (number of mice with full body tonic extension prevented)/(total number of mice tested) (@ a given time).

[1] = 100 mpk oral, 0.5 h after dosing

Row | Compound | MES @ 300 mpk: (number of mice with full body tonic extension prevented)/(total number of mice tested) (0.5 hr after dosing) | MES @ 300 mpk: (number of mice with full body tonic extension prevented)/(total number of mice tested) (2 hr after dosing) | MES @ 300 mpk: (number of mice with full body tonic extension prevented)/(total number of mice tested) (4 hr after dosing) | MES @ 100 mpk: (number of mice with full body tonic extension prevented)/(total number of mice tested) [1] | MES @ 100 mpk: (number of mice with full body tonic extension prevented)/(total number of mice tested) (100 mpk oral, 2 h after dosing) | MES @ 100 mpk: (number of mice with full body tonic extension prevented)/(total number of mice tested) (100 mpk oral, 4 h after dosing) | MES @ 100 mpk (result in words) (100 mpk oral, time not stated)
1 | NS(=O)(=O)NCc1csc2cccc(Br)c12 [Compound 17, N-[(4-bromobenzo[b]thien-3-yl)methyl]-sulfamide] | 0/3 (0.5 hr) | 0/3 (2 hr) | 1/3 (4 hr) | – | – | – | –
2 | NS(=O)(=O)NCc1csc2c(F)cccc12 [Compound 18, N-[(7-fluorobenzo[b]thien-3-yl)methyl]-sulfamide] | 0/3 (0.5 hr) | 2/3 (2 hr) | 0/3 (4 hr) | – | – | – | –
3 | NS(=O)(=O)NCc1csc2ccc(Br)cc12 [Compound 15, N-[(5-bromobenzo[b]thien-3-yl)methyl]-sulfamide] | 0/3 (0.5 hr) | 0/3 (2 hr) | 1/3 (4 hr) | – | – | – | –
4 | Cc1oc2ccccc2c1CNS(N)(=O)=O [Compound 13, N-[(2-methyl-3-benzofuranyl)methyl]-sulfamide] | – | – | – | 4/5 (0.5 h) | 0/5 (2 h) | 0/5 (4 h) | –
5 | Cn1cc(CNS(N)(=O)=O)c2ccccc21 [Compound 7, N-[(1-methyl-1H-indol-3-yl)methyl]-sulfamide] | 5/5 (0.5 hr) | 0/5 (2 hr) | 0/5 (4 hr) | – | – | – | inactive
6 | NS(=O)(=O)NCc1csc2ccccc12 [Compound 1, N-(benzo[b]thien-3-ylmethyl)-sulfamide] | – | – | – | 1/5 (0.5 h) | 3/5 (2 h) | 2/5 (4 h) | –
